Data as given in US20060135494A1, “Methods of treating injuries of the nervous system associated with hemorrhage” (priority 2002, published 2006).

Experiments:
[1] = test system: collagenase-induced ICH; experiment: Neurological testing: apomorphine-induced rotational behavior after ICH; type: in vivo, rat; conditions: 2 days after ICH; vehicle approximately 20
From the text: (§1) All animals received humane care in compliance with the institute's guidelines as outlined in “Guide for the Care and Use of Laboratory Animals” prepared by the National Academy of Sciences and published by the National Institutes of Health (NIH publication no. 86-23, revised 1985). Female Sprague-Dawley rats (250-300 grams (g); Harlan Sprague-Dawley, Inc., Indianapolis, Ind.) were anesthesized with an intramuscular injection of a mixture of ketamine and xylazine and set in supine in a Kopf headholder. The right carotid artery, external and internal branches, was exposed and the distal end of the external carotid freed and retracted to line with the internal carotid. A PE-10 polyethylene tube (Becton-Dickinson, Sparks, Md.) was then introduced from the external into the internal carotid artery, and the former was ligated to hold the tube. […]
(§2) The animals were tested for rotational behavior in response to apomorphine 2 days after surgery. Apomorphine (1 mg/kg bw; Sigma Chemical Co.) was injected subcutaneously, and rotations were determined by a computer-controlled Columbus Instruments Videomex-V system (Columbus, Ohio). […] Step initiation was assessed at 2 days after ICH by independently analyzing stepping behavior in the left and right forelimbs. […] The number of steps initiated by each limb was counted during a 1-minute period.

[2] = test system: traumatic brain injury (blunt head trauma); experiment: TUNEL-positive cells in blunt head trauma rat model; type: in vivo
From the text: UDCA and TUDCA are nontoxic, endogenously produced, bile acids that act both in vitro and in vivo as potent anti-apoptotic agents. In addition to their effects at preventing mitochondrial dysfunction by inhibiting membrane depolarization and channel formation (Rodrigues et al., J Clin Invest 1998;101:2790-2799 and Rodrigues et al., Cell Death Differ 1999;6:842-854), these molecules may also play key regulatory roles in signal transduction pathways by modulating cytosolic calcium levels and in gene expression by regulating transcription (Guicciari et al., Hepatology 2002;35:971-973). […] Administration of TUDCA almost completely abolished the appearance of TUNEL-positive cells, the activation of caspase-3-like proteases, and the histological damage of the peri-ICH region. These findings are consistent with the inhibition of neuronal apoptosis by TUDCA. Further, most neurons can be rescued by TUDCA up to 3 hours, and some up to 6 hours, from the onset of the hemorrhage, consistent with a delayed activation of neuronal cell death. Thus, at least in this model, many cells remain viable for several hours and can be recovered by an anti-apoptotic agent, provided therapy is initiated within this time window. Finally, TUDCA was also markedly effective at reducing apoptosis after brain injury in a blunt head trauma rat model. […]

[3] = test system: collagenase-induced ICH; experiment: Neurological testing: limb placement / step initiation after ICH; type: in vivo, rat
From the text: as §1, §2

[4] = Bile acid analysis of serum and brain; type: in vivo, rat; conditions: single 100 mg/kg bw arterial dose
From the text: as §1
Normal controls and rats with intrastriatal hematoma were sacrificed 1, 3, and 6 hours after TUDCA or vehicle injection. […] Bile acids were assessed by gas chromatography after organic solvent extraction, purification on Lipidex 1000, liquid-solid extraction, hydrolysis, isolation by lipophilic anion exchange chromatography and conversion to methyl ester-trimethylsilyl ether derivatives (Setchell et al., Gastroenterology 1997;112:226-235). Bile acid concentrations were expressed as nmol/g of tissue or as μmol/l of serum.

With `C[C@H](CCC(=O)NCCS(=O)(=O)O)[C@H]1CC[C@H]2[C@@H]3[C@@H](O)C[C@@H]4C[C@H](O)CC[C@]4(C)[C@H]3CC[C@]12C` [TUDCA, tauroursodeoxycholic acid] the “rotational response to apomorphine” value [1] was “less than 10 per 5 minutes”, the reduction of apoptosis ([2]; 24-h pre-injury treatment plus treatments at head trauma and 24 h later) was “more than 50%” and the “number of TUNEL-positive cells per high power field” value ([2]; 24-h pre-injury treatment plus two post-injury treatments, vehicle approximately 27) was 12. For the same compound, the “improved motor activity in test of limb placement” value ([3]; time-course experiment of TUDCA administration, 2 days after ICH) was 25-40%, the “steps initiated by left forelimb in 1-minute period versus vehicle” value ([3]; unilateral striatal hemorrhage, 2 days) was “significantly more steps” and the concentration at 3 h ([4]; female, Sprague-Dawley, rat, serum, other: injected directly into the internal carotid artery, 3 hours following injection (from 0.3)) was 10.6 µM. The “increase in brain concentrations of the bile acid compared with vehicle-injected controls” value ([4]; 3 hours) was 10 fold.
